Read-outs that look alike come from different tables or passages of the source.

One test addresses T1, H^+ /K^+ ATPase (Oryctolagus cuniculus, UniProt P27112).
T1 construct: Rabbit gastric glands are isolated from gastric mucosa; from tissue; host or cells: isolated gastric glands from gastric mucosa of the corpus region of rabbit stomach
The test is described as follows: Inhibition of 14C-aminopyrine uptake in rabbit isolated gastric glands stimulated by DBcAMP or high K+ (H+/K+ ATPase inhibition). It is filed as cell-based. The settings on record: compound at 10^-4 M, % inhibition of maximum response. Here is the method:
Compounds of formula I were also tested for anti-secretory activity by their ability to inhibit the highly specific proton transporting enzyme H^+ /K^+ ATPase.
Potential H+/K^+ ATPase inhibitors are evaluated by a technique involving the measurement of aminopyrine accumulation in rabbit isolated gastric glands. Amino-pyrine, which is a weak base, accumulates in acid-secreting cells; therefore, uptake of aminopyrine is increased by secretagogues and an inhibitor of acid secretion will reduce the response to one or more secretagogues depending upon its site of action. Compounds which reduce the response to dibutyryl cyclic adenosine monophosphate (DBcAMP) stimulation are assumed to have an intracellular site of action, and those which reduce the response to both DBcAMP and high potassium ion concentration (K^+) are thought to have an intracellular site of action at the secretory surface of the parietal cell, involving the highly specific proton--transporting enzyme, H^+ /K^+ ATPase. The following test procedure is used:
Rabbit gastric glands are isolated from gastric mucosa from the corpus region of the stomach by a method based on one described by Berglindh T., Obrink K. J., Acta Physiol. Scand. 96, 150-159 (1976). Measurement of aminopyrine uptake is carried out using a modification of the method described by Berglindh T., Hellander H. F., Obrink K. J. (ibid, 97, 401-414, 1976).
Compounds are tested at a concentration of 10^-4 M, initially, and in some cases at lower concentrations, for their ability to inhibit ^14 C-aminopyrine uptake in gastric glands, stimulated by DBcAMP and high K^+ respectively. Results are expressed as the % inhibition of the maximum response to the secretagogue induced by the test compound. An inhibitor of H^+ /K^+ ATPase would be expected to reduce the response to both secretagogues.

A short description of test [1]: Stress-induced erosion test of Senay and Levine (anti-ulcer activity). It is filed as in vivo. The settings on record: Dose 100 mg/kg. Here is the method: Anti-ulcer activity was determined by the stressinduced erosion test of Senay and Levine, Proc. Soc. Exp. Biol. Med., 124, 1221-3 (1967).
The mark [2] stands for this setting: DBcAMP stimulation, read-out: % Inhibition to Stimulation by DBcAMP at 10^-4.
Setting [3] is: high K+ stimulation, read-out: % Inhibition to Stimulation by K^+ at 10^-4.

T1 sequence (P27112 whole entry): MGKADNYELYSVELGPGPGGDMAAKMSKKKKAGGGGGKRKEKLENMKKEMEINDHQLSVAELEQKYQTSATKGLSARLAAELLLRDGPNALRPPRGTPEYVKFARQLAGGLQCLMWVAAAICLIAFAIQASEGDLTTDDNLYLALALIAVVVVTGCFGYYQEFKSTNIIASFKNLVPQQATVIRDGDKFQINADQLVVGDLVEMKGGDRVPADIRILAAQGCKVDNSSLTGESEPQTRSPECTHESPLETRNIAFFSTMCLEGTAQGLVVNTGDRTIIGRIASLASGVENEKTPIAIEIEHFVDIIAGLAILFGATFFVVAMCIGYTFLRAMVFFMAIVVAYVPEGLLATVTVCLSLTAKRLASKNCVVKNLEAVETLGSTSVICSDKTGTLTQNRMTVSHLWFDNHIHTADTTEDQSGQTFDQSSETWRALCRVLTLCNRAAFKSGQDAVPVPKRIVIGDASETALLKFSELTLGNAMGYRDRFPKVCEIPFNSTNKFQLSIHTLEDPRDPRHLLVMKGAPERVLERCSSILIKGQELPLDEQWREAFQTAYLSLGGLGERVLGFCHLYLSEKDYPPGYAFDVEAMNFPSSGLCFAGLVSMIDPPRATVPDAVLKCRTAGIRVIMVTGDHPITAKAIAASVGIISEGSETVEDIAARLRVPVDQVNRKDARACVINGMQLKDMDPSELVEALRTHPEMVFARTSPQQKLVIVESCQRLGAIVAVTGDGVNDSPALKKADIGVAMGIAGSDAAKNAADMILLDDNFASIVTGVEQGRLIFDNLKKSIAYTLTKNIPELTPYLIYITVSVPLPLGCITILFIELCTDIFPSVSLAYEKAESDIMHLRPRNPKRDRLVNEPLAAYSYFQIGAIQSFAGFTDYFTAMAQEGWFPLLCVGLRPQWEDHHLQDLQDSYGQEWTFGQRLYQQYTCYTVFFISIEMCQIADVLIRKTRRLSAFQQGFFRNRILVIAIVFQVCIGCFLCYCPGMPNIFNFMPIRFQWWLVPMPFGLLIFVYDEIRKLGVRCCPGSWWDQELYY
T1 sequence (P18597 whole entry partner): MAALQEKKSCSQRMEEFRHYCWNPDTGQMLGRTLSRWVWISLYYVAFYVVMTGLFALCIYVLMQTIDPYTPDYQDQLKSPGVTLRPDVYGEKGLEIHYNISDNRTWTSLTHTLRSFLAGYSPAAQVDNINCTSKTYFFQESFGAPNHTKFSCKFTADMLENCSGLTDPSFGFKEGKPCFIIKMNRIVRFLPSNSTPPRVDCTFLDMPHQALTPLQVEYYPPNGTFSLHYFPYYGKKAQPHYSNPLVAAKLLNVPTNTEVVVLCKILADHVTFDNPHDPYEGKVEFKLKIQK

Usually inhibition stands for the drop in the measured response relative to a control, in per cent. Turning to `C1=Cc2cccc3nc(SCc4ccccc4)n(c23)C1` [Example 7, 2-Benzylthio-[4H]-imidazo[4,5,1-ij]quinoline], the inhibition at 100 µM on H^+ /K^+ ATPase (setting [2]) was determined as 40%; at H^+ /K^+ ATPase (setting [3]), 63%. The “Stress Induced Erosion (Senay & Levine) % Inhibition” value in test [1] is 54%.
Regarding `Clc1ccc(CSc2nc3cccc4c3n2CCC4)cc1` [Example 5, 2-(4-Chlorophenylmethylthio)-5,6-dihydro-[4H]-imidazo-[4,5,1-ij]quinoline], the figures for the inhibition at 100 µM at H^+ /K^+ ATPase (setting [2]) and at H^+ /K^+ ATPase (setting [3]) were 53% and 109%, respectively.
For `Fc1ccc(CSc2nc3cccc4c3n2CCC4)cc1` [Example 3, 5,6-Dihydro-2-(4-fluorophenylmethylthio)-[4H]-imidazo-[4,5,1,-ij]quinoline], the inhibition at 100 µM was 6.7% on H^+ /K^+ ATPase (setting [2]) and 76% at H^+ /K^+ ATPase (setting [3]). Besides, the “Stress Induced Erosion (Senay & Levine) % Inhibition” value in test [1] came to 62%.
Turning to `c1ccc(CSc2nc3cccc4c3n2CCC4)cc1` [Example 1, 2-Benzylthio-5,6,-dihydro-[4H]-imidazo [4,5,1-ij]-quinoline], the values for the inhibition at 100 µM at H^+ /K^+ ATPase (setting [2]) and at H^+ /K^+ ATPase (setting [3]) were 70% and 111%, respectively. Also, the “Stress Induced Erosion (Senay & Levine) % Inhibition” value in test [1] is 83%.
On to `Clc1ccccc1CSc1nc2cccc3c2n1CCC3` [Example 4, 2-(2-Chlorophenylmethylthio)-5,6-dihydro-[4H]-imidazo-[4,5,1-ij]quinoline], for which the inhibition at 100 µM at H^+ /K^+ ATPase (setting [2]) amounted to 32.9%; on H^+ /K^+ ATPase (setting [3]) it was 83.5%. Further, in test [1], the “Stress Induced Erosion (Senay & Levine) % Inhibition” value is reported as 55%.
`Fc1ccccc1CSc1nc2cccc3c2n1CCC3` [Example 6, 5,6-Dihydro-2-(2-fluorophenylmethylthio)-[4H]-imidazo-[4,5,1-ij]quinoline]: the inhibition at 100 µM at H^+ /K^+ ATPase (setting [2]) was 40.6%; at H^+ /K^+ ATPase (setting [3]), 93%.
Regarding `Clc1cccc(CSc2nc3cccc4c3n2CCC4)c1` [Example 2, 2-(3-Chlorobenzylthio)-5,6,-dihydro-[4H]-imidazo[4,5,1,-ij]quinoline], the inhibition at 100 µM on H^+ /K^+ ATPase (setting [2]) was 69%; at H^+ /K^+ ATPase (setting [3]), 54%.

The values are drawn from patent US4609655A, “Anti-ulcer imidazo-quinoline, indole and benzazepine derivatives” (John Wyeth & Brother, Ltd., priority 1983, dated 1986).
